Test results reported in US11236129B2, “IL-17A binding peptides and medical uses thereof” (Dompe' Farmaceutici S.P.A., priority 2018, dated 2022).
Residues, ends and D or L forms follow the SMILES beside them.

Biological target: IL-17RA/IL17RC dimerization induced by IL-17A (Homo sapiens, UniProt Q16552)
Assay: IL-17RA/IL17RC dimerization assay in response to IL-17A (PathHunter Cytokine Receptor Assay)
Format: cell-based
Conditions: IL-17A at EC80; read-out: IC50 in IL-17RA/IL7RC dimerization assay
Procedure: The peptides of Table 7 were tested for their ability to inhibit the binding of IL-17A to its receptor and the subsequent interaction of IL-17RA and IL17RC.
Interleukin receptor RA and RC dimerization assay (DiscoverX) was used to measure the interaction of the receptor chains IL-17RA and IL17RC upon activation by IL-17A in the absence or presence of the peptides of Table 7.
In the PathHunter® Cytokine Receptor Assay, one cytokine receptor chain is tagged with a small peptide epitope ProLink (PK) and the other chain is tagged with Enzyme Acceptor (EA). Ligand binding induces dimerization of the two receptors, facilitating complementation of PK and EA fragments. This interaction generates an active unit of b-galactosidase, which is detected using a chemiluminescent substrate. PathHunter cell lines were expanded from freezer stocks according to standard procedures. Cells were seeded in a total volume of 20 μL into white walled, 384-well microplates and incubated for the appropriate time prior to testing. For agonist activity inhibition, cells were incubated with sample to induce response. Intermediate dilution of sample stocks was performed to generate 5× sample in assay buffer. 5 μL of 5× sample was added to cells and incubated at 37° C. or room temperature for 60 minutes. Vehicle concentration was 1%. 5 μL of 6×EC80 agonist (IL-17A) in assay buffer was added to the cells and incubated at 37° C. for 6 to 16 hours depending on the assay. 1. […] For some assays, activity was detected using a high sensitivity detection reagent (PathHunter Flash Kit) to improve assay performance. In these assays, an equal volume of detection reagent (25 or 30 uL) was added to the wells, followed by a one hour incubation at room temperature. Microplates were read following signal generation with a PerkinElmer Envision™ instrument for chemiluminescent signal detection. Compound activity was analyzed using CBIS data analysis suite (ChemInnovation, CA). % Inhibition=100%×(1−(mean RLU of test sample−mean RLU of vehicle control)/(mean RLU of EC80 control−mean RLU of vehicle control)).

IL-17RA/IL17RC dimerization induced by IL-17A, sequence (Q16552 24-155): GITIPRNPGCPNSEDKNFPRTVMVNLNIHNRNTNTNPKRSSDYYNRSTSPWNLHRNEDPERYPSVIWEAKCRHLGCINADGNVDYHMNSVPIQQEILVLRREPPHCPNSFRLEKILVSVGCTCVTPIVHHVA

Row | Compound | IC50 [nM]
1 | CC(=O)N[C@H](C(=O)N[C@@H](Cc1c[nH]cn1)C(=O)N[C@@H](Cc1ccccc1)C(=O)N[C@H](C(=O)N[C@@H](Cc1ccccc1)C(=O)N1CCC[C@H]1C(=O)N[C@@H](CCC(N)=O)C(=O)N[C@@H](CC(=O)O)C(=O)N[C@@H](CC(C)C)C(=O)N[C@@H](Cc1c[nH]c2ccccc12)C(=O)N[C@@H](CCC(=O)O)C(=O)N[C@@H](Cc1c[nH]c2ccccc12)C(=O)N[C@@H](Cc1ccccc1)C(=O)N[C@@H](CCCNC(=N)N)C(=O)N[C@@H](CCCNC(=N)N)C(N)=O)[C@@H](C)O)C(C)C [SEQ ID NO: 129] (Ac-VHFTFPQDLWEWFRR-NH2) | < 500
2 | CC(=O)N[C@H](C(=O)N[C@@H](Cc1c[nH]cn1)C(=O)N[C@@H](Cc1ccccc1)C(=O)N[C@@H](CCC(N)=O)C(=O)N[C@@H](Cc1ccccc1)C(=O)N1CCC[C@H]1C(=O)N[C@@H](C)C(=O)N[C@@H](CC(=O)O)C(=O)N[C@@H](CC(C)C)C(=O)N[C@@H](Cc1c[nH]c2ccccc12)C(=O)N[C@@H](CCC(=O)O)C(=O)N[C@@H](Cc1c[nH]c2ccccc12)C(=O)N[C@H](C(=O)N[C@@H](CCCNC(=N)N)C(=O)N[C@@H](CCCNC(=N)N)C(N)=O)C(C)C)C(C)C [SEQ ID NO: 130] (Ac-VHFQFPADLWEWVRR-NH2) | < 500
3 | CC(=O)N[C@H](C(=O)N[C@@H](Cc1c[nH]cn1)C(=O)N[C@@H](Cc1ccccc1)C(=O)N[C@@H](CCC(N)=O)C(=O)N[C@@H](Cc1ccccc1)C(=O)N1CCC[C@H]1C(=O)N[C@@H](C)C(=O)N[C@@H](CC(=O)O)C(=O)N[C@@H](Cc1ccccc1)C(=O)N[C@@H](Cc1c[nH]c2ccccc12)C(=O)N[C@@H](CCC(=O)O)C(=O)N[C@@H](Cc1c[nH]c2ccccc12)C(=O)N[C@H](C(=O)N[C@@H](CCCNC(=N)N)C(=O)N[C@@H](CCCNC(=N)N)C(N)=O)C(C)C)C(C)C [SEQ ID NO: 131] (Ac-VHFQFPADFWEWVRR-NH2) | < 500
4 | CC(=O)N[C@H](C(=O)N[C@@H](Cc1c[nH]cn1)C(=O)N[C@@H](Cc1ccccc1)C(=O)N[C@@H](CCC(N)=O)C(=O)N[C@@H](Cc1ccccc1)C(=O)N1CCC[C@H]1C(=O)N[C@@H](C)C(=O)N[C@@H](CC(=O)O)C(=O)N[C@@H](CC(C)C)C(=O)N[C@@H](Cc1ccc(O)cc1)C(=O)N[C@@H](CCC(=O)O)C(=O)N[C@@H](Cc1c[nH]c2ccccc12)C(=O)N[C@H](C(=O)N[C@@H](CCCNC(=N)N)C(=O)N[C@@H](CCCNC(=N)N)C(N)=O)C(C)C)C(C)C [SEQ ID NO: 132] (Ac-VHFQFPADLYEWVRR-NH2) | < 500
5 | CC(=O)N[C@H](C(=O)N[C@@H](Cc1c[nH]cn1)C(=O)N[C@@H](Cc1ccccc1)C(=O)N[C@@H](CCC(N)=O)C(=O)N[C@@H](Cc1ccccc1)C(=O)N1CCC[C@H]1C(=O)N[C@@H](C)C(=O)N[C@@H](CC(=O)O)C(=O)N[C@@H](CC(C)C)C(=O)N[C@@H](Cc1c[nH]c2ccccc12)C(=O)N[C@@H](CC(N)=O)C(=O)N[C@@H](Cc1c[nH]c2ccccc12)C(=O)N[C@H](C(=O)N[C@@H](CCCNC(=N)N)C(=O)N[C@@H](CCCNC(=N)N)C(N)=O)C(C)C)C(C)C [SEQ ID NO: 133] (Ac-VHFQFPADLWNWVRR-NH2) | < 500
6 | CC(=O)N[C@H](C(=O)N[C@@H](Cc1c[nH]cn1)C(=O)N[C@@H](Cc1ccccc1)C(=O)N[C@@H](CCC(N)=O)C(=O)N[C@@H](Cc1ccccc1)C(=O)N1CCC[C@H]1C(=O)N[C@@H](C)C(=O)N[C@@H](CC(=O)O)C(=O)N[C@@H](CC(C)C)C(=O)N[C@@H](Cc1c[nH]c2ccccc12)C(=O)N[C@@H](CCC(=O)O)C(=O)N[C@@H](Cc1ccccc1)C(=O)N[C@H](C(=O)N[C@@H](CCCNC(=N)N)C(=O)N[C@@H](CCCNC(=N)N)C(N)=O)C(C)C)C(C)C [SEQ ID NO: 134] (Ac-VHFQFPADLWEFVRR-NH2) | < 500
7 | CC(=O)N[C@H](C(=O)N[C@@H](Cc1c[nH]cn1)C(=O)N[C@@H](Cc1ccccc1)C(=O)N[C@@H](CCC(N)=O)C(=O)N[C@@H](Cc1ccccc1)C(=O)N1CCC[C@H]1C(=O)N[C@@H](C)C(=O)N[C@@H](CC(=O)O)C(=O)N[C@@H](CC(C)C)C(=O)N[C@@H](Cc1c[nH]c2ccccc12)C(=O)N[C@@H](CCC(=O)O)C(=O)N[C@@H](Cc1c[nH]c2ccccc12)C(=O)N[C@@H](Cc1ccccc1)C(=O)N[C@@H](CCCNC(=N)N)C(=O)N[C@@H](CCCNC(=N)N)C(N)=O)C(C)C [SEQ ID NO: 135] (Ac-VHFQFPADLWEWFRR-NH2) | < 500
8 | CC(=O)N[C@H](C(=O)N[C@@H](Cc1c[nH]cn1)C(=O)N[C@@H](Cc1ccccc1)C(=O)N[C@@H](CCC(N)=O)C(=O)N[C@@H](Cc1ccccc1)C(=O)N1CCC[C@H]1C(=O)N[C@@H](CCC(N)=O)C(=O)N[C@@H](CC(=O)O)C(=O)N[C@@H](Cc1c[nH]c2ccccc12)C(=O)N[C@@H](Cc1c[nH]c2ccccc12)C(=O)N[C@@H](CCC(=O)O)C(=O)N[C@@H](Cc1c[nH]c2ccccc12)C(=O)N[C@H](C(=O)N[C@@H](CCCNC(=N)N)C(=O)N[C@@H](CCCNC(=N)N)C(N)=O)C(C)C)C(C)C [SEQ ID NO: 136] (Ac-VHFQFPQDWWEWVRR-NH2) | < 500
9 | CC[C@H](C)[C@H](NC(=O)[C@H](CCC(N)=O)NC(=O)[C@H](Cc1ccccc1)NC(=O)[C@H](Cc1c[nH]cn1)NC(=O)[C@@H](NC(C)=O)C(C)C)C(=O)N1CCC[C@H]1C(=O)N[C@@H](CCC(N)=O)C(=O)N[C@@H](CC(=O)O)C(=O)N[C@@H](Cc1c[nH]c2ccccc12)C(=O)N[C@@H](Cc1c[nH]c2ccccc12)C(=O)N[C@@H](CCC(=O)O)C(=O)N[C@@H](Cc1c[nH]c2ccccc12)C(=O)N[C@H](C(=O)N[C@@H](CCCNC(=N)N)C(=O)N[C@@H](CCCNC(=N)N)C(N)=O)C(C)C [SEQ ID NO: 137] (Ac-VHFQIPQDWWEWVRR-NH2) | < 500
10 | CC(=O)N[C@H](C(=O)N[C@@H](Cc1c[nH]cn1)C(=O)N[C@@H](Cc1ccccc1)C(=O)N[C@@H](CCC(N)=O)C(=O)N[C@@H](Cc1ccccc1)C(=O)N1CCC[C@H]1C(=O)N[C@@H](CCC(N)=O)C(=O)N[C@@H](CC(=O)O)C(=O)N[C@@H](Cc1c[nH]c2ccccc12)C(=O)N[C@@H](Cc1ccc(O)cc1)C(=O)N[C@@H](CCC(=O)O)C(=O)N[C@@H](Cc1c[nH]c2ccccc12)C(=O)N[C@H](C(=O)N[C@@H](CCCNC(=N)N)C(=O)N[C@@H](CCCNC(=N)N)C(N)=O)C(C)C)C(C)C [SEQ ID NO: 138] (Ac-VHFQFPQDWYEWVRR-NH2) | < 500
11 | CC(=O)N[C@H](C(=O)N[C@@H](Cc1c[nH]cn1)C(=O)N[C@@H](Cc1ccccc1)C(=O)N[C@@H](CCC(N)=O)C(=O)N[C@@H](Cc1ccccc1)C(=O)N1CCC[C@H]1C(=O)N[C@@H](CCC(N)=O)C(=O)N[C@@H](CC(=O)O)C(=O)N[C@@H](Cc1c[nH]c2ccccc12)C(=O)N[C@@H](Cc1c[nH]c2ccccc12)C(=O)N[C@@H](CC(N)=O)C(=O)N[C@@H](Cc1c[nH]c2ccccc12)C(=O)N[C@H](C(=O)N[C@@H](CCCNC(=N)N)C(=O)N[C@@H](CCCNC(=N)N)C(N)=O)C(C)C)C(C)C [SEQ ID NO: 139] (Ac-VHFQFPQDWWNWVRR-NH2) | < 500
12 | CC(=O)N[C@H](C(=O)N[C@@H](Cc1c[nH]cn1)C(=O)N[C@@H](Cc1ccccc1)C(=O)N[C@@H](CCC(N)=O)C(=O)N[C@@H](Cc1ccccc1)C(=O)N1CCC[C@H]1C(=O)N[C@@H](CCC(N)=O)C(=O)N[C@@H](CC(=O)O)C(=O)N[C@@H](CC(C)C)C(=O)N[C@@H](Cc1c[nH]c2ccccc12)C(=O)N[C@@H](CCC(=O)O)C(=O)N[C@@H](Cc1ccccc1)C(=O)N[C@H](C(=O)N[C@@H](CCCNC(=N)N)C(=O)N[C@@H](CCCNC(=N)N)C(N)=O)C(C)C)C(C)C [SEQ ID NO: 140] (Ac-VHFQFPQDLWEFVRR-NH2) | < 500
